According to PubChem BioAssay (NCI):
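A five-concentration, 48-hour dose response in 96-well plates underlies each endpoint, interpolated linearly between surrounding concentrations. At the TGI there is no net growth.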

Legend:
Assay in all cases: growth of human tumour cells (NCI), 48 h
[1] = test system: 786-0 renal
[2] = test system: A498 renal
[3] = test system: ACHN renal
[4] = test system: CAKI-1 renal
[5] = test system: CCRF-CEM leukemia
[6] = test system: DU-145 prostate
[7] = test system: EKVX NSCLC
[8] = test system: HCC-2998 colon
[9] = test system: HCT-116 colon
[10] = test system: HCT-15 colon
[11] = test system: HL-60(TB) leukemia
[12] = test system: HOP-62 NSCLC
[13] = test system: HS 578T breast
[14] = test system: HT29 colon
[15] = test system: IGROV1 ovarian
[16] = test system: K-562 leukemia
[17] = test system: KM12 colon
[18] = test system: LOX IMVI melanoma
[19] = test system: M14 melanoma
[20] = test system: MCF7 breast
[21] = test system: MDA-MB-231 breast
[22] = test system: MDA-MB-435
[23] = test system: MDA-N
[24] = test system: MOLT-4 leukemia
[25] = test system: NCI-H226 lung
[26] = test system: NCI-H23 lung
[27] = test system: NCI-H460 lung
[28] = test system: NCI-H522 lung
[29] = test system: NCI/ADR-RES ovarian
[30] = test system: OVCAR-3 ovarian
[31] = test system: OVCAR-4 ovarian
[32] = test system: OVCAR-5 ovarian
[33] = test system: OVCAR-8 ovarian
[34] = test system: PC-3 prostate
[35] = test system: RPMI-8226 leukemia
[36] = test system: RXF 393 renal
[37] = test system: SF-268 CNS
[38] = test system: SF-295 CNS
[39] = test system: SF-539 CNS
[40] = test system: SK-MEL-2 melanoma
[41] = test system: SK-MEL-28 melanoma
[42] = test system: SK-MEL-5 melanoma
[43] = test system: SK-OV-3 ovarian
[44] = test system: SR leukemia
[45] = test system: SW-620 colon
[46] = test system: T-47D breast
[47] = test system: TK-10 renal
[48] = test system: U251 CNS
[49] = test system: UACC-257 melanoma
[50] = test system: UO-31 renal
[51] = test system: A549 NSCLC
[52] = test system: COLO 205 colon
[53] = test system: HOP-92 NSCLC
[54] = test system: SN12C renal
[55] = test system: SNB-19 CNS
[56] = test system: SNB-75 CNS
[57] = test system: UACC-62 melanoma

Structure (SMILES): Cc1cc(S(=O)(=O)/N=C(\[N-]S(=O)(=O)c2cc(Cl)sc2Cl)[n+]2ccc(N(C)C)cc2)c(S)cc1Cl
- TGI [1]: > 100 µM
- TGI [2]: 82.5 µM
- TGI [3]: > 100 µM
- TGI [4]: > 100 µM
- TGI [5]: > 100 µM
- TGI [6]: > 100 µM
- TGI [7]: > 100 µM
- TGI [8]: > 100 µM
- TGI [9]: 55.5 µM
- TGI [10]: > 100 µM
- TGI [11]: > 100 µM
- TGI [12]: > 100 µM
- TGI [13]: > 100 µM
- TGI [14]: > 100 µM
- TGI [15]: > 100 µM
- TGI [16]: > 100 µM
- TGI [17]: > 100 µM
- TGI [18]: > 100 µM
- TGI [19]: 95.8 µM
- TGI [20]: > 100 µM
- TGI [21]: > 100 µM
- TGI [22]: > 100 µM
- TGI [23]: > 100 µM
- TGI [24]: > 100 µM
- TGI [25]: > 100 µM
- TGI [26]: > 100 µM
- TGI [27]: > 100 µM
- TGI [28]: 86.1 µM
- TGI [29]: > 100 µM
- TGI [30]: > 100 µM
- TGI [31]: > 100 µM
- TGI [32]: > 100 µM
- TGI [33]: > 100 µM
- TGI [34]: > 100 µM
- TGI [35]: > 100 µM
- TGI [36]: > 100 µM
- TGI [37]: > 100 µM
- TGI [38]: > 100 µM
- TGI [39]: > 100 µM
- TGI [40]: > 100 µM
- TGI [41]: > 100 µM
- TGI [42]: > 100 µM
- TGI [43]: > 100 µM
- TGI [44]: 98.2 µM
- TGI [45]: > 100 µM
- TGI [46]: > 100 µM
- TGI [47]: > 100 µM
- TGI [48]: > 100 µM
- TGI [49]: > 100 µM
- TGI [50]: 56 µM

Structure (SMILES): COc1ccc(NC(=S)c2ccoc2C)cc1CC(=O)OC(C)C
- TGI [1]: > 100 µM
- TGI [51]: > 100 µM
- TGI [3]: > 100 µM
- TGI [4]: > 100 µM
- TGI [5]: > 100 µM
- TGI [52]: 36.7 µM
- TGI [6]: > 100 µM
- TGI [7]: > 100 µM
- TGI [8]: > 100 µM
- TGI [9]: > 100 µM
- TGI [10]: > 100 µM
- TGI [11]: 54.5 µM
- TGI [53]: 67.9 µM
- TGI [13]: > 100 µM
- TGI [14]: 36.3 µM
- TGI [15]: > 100 µM
- TGI [16]: > 100 µM
- TGI [17]: > 100 µM
- TGI [18]: 39.2 µM
- TGI [19]: 64.3 µM
- TGI [20]: 51.5 µM
- TGI [21]: > 100 µM
- TGI [22]: > 100 µM
- TGI [23]: > 100 µM
- TGI [24]: 80.4 µM
- TGI [25]: 68 µM
- TGI [26]: > 100 µM
- TGI [27]: > 100 µM
- TGI [28]: > 100 µM
- TGI [29]: 58.7 µM
- TGI [30]: > 100 µM
- TGI [31]: > 100 µM
- TGI [32]: > 100 µM
- TGI [33]: > 100 µM
- TGI [34]: 62.3 µM
- TGI [35]: > 100 µM
- TGI [37]: > 100 µM
- TGI [38]: > 100 µM
- TGI [39]: > 100 µM
- TGI [40]: 40.6 µM
- TGI [41]: > 100 µM
- TGI [42]: > 100 µM
- TGI [43]: > 100 µM
- TGI [54]: > 100 µM
- TGI [55]: > 100 µM
- TGI [56]: 93.9 µM
- TGI [45]: > 100 µM
- TGI [46]: > 100 µM
- TGI [47]: > 100 µM
- TGI [48]: > 100 µM
- TGI [49]: > 100 µM
- TGI [57]: > 100 µM
- TGI [50]: > 100 µM
